Laboratory results published in ChEMBL document CHEMBL4507268 (2021).

Tests used:
Conditions in all cases: Compound concentration 1000.0 nM
[1] = target: T1, Homeodomain-interacting protein kinase 4 (Homo sapiens) (UniProt Q8NE63)
T1 sequence (whole entry): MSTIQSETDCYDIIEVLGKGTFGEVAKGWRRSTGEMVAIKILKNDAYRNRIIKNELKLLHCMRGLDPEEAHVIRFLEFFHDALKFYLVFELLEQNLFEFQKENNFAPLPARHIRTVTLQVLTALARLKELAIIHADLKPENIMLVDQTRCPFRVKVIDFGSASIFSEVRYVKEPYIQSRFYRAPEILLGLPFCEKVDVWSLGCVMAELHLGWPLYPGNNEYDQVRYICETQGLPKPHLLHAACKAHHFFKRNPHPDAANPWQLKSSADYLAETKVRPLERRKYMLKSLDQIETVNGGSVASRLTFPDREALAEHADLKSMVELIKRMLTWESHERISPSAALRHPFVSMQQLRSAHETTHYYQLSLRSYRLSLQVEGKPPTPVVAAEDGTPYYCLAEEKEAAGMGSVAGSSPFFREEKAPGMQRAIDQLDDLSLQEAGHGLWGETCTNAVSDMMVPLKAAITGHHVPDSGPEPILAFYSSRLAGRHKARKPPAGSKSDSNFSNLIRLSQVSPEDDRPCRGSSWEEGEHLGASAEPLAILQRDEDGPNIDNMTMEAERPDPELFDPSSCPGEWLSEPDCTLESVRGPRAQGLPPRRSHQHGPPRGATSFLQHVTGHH

[2] = target: Mitogen-activated protein kinase kinase kinase 19 (Homo sapiens) (UniProt Q56UN5)
[3] = tested on: Epidermal growth factor receptor (Homo sapiens), P00533 [L858R,T790M]
[4] = target: Mitogen-activated protein kinase 3 (Homo sapiens) (UniProt P27361)
[5] = target: T2, Serine/threonine-protein kinase NLK (Homo sapiens) (UniProt Q9UBE8)
T2 sequence (whole entry): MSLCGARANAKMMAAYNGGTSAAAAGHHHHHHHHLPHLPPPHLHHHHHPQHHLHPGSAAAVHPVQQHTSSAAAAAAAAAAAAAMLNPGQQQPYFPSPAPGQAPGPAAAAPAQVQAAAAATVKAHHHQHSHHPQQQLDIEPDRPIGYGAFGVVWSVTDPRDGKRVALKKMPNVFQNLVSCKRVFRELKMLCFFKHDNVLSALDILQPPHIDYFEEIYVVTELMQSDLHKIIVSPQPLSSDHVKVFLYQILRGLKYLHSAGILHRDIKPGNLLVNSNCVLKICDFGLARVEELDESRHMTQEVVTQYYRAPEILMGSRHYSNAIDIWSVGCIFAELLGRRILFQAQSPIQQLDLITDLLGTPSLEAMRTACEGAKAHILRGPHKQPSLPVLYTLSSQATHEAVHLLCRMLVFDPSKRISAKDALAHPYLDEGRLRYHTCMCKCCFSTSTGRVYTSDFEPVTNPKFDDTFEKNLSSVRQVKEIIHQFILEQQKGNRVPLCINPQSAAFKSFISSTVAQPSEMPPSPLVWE

[6] = target: Serine/threonine-protein kinase pim-2 (Homo sapiens) (UniProt Q9P1W9)
[7] = target: STE20-like serine/threonine-protein kinase (Homo sapiens) (UniProt Q9H2G2)
[8] = target: MAP kinase-interacting serine/threonine-protein kinase 2 (Homo sapiens) (UniProt Q9HBH9)
Chain of MAP kinase-interacting serine/threonine-protein kinase 2 (Homo sapiens) (Q9HBH9 whole entry, looked up): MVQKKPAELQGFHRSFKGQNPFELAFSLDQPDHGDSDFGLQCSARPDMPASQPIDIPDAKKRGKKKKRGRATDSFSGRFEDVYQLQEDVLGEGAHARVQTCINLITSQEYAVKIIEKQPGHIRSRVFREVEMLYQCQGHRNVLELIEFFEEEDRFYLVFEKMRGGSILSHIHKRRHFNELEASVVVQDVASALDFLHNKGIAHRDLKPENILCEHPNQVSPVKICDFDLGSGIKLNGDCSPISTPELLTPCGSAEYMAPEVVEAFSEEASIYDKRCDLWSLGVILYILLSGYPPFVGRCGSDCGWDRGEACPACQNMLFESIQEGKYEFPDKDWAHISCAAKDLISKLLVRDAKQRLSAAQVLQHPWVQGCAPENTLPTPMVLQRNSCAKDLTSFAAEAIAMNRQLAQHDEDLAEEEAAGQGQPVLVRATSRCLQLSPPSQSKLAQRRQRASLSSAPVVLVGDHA

[9] = target: Myosin light chain kinase, smooth muscle (Homo sapiens) (UniProt Q15746)
Chain of Myosin light chain kinase, smooth muscle (Homo sapiens) (Q15746 whole entry): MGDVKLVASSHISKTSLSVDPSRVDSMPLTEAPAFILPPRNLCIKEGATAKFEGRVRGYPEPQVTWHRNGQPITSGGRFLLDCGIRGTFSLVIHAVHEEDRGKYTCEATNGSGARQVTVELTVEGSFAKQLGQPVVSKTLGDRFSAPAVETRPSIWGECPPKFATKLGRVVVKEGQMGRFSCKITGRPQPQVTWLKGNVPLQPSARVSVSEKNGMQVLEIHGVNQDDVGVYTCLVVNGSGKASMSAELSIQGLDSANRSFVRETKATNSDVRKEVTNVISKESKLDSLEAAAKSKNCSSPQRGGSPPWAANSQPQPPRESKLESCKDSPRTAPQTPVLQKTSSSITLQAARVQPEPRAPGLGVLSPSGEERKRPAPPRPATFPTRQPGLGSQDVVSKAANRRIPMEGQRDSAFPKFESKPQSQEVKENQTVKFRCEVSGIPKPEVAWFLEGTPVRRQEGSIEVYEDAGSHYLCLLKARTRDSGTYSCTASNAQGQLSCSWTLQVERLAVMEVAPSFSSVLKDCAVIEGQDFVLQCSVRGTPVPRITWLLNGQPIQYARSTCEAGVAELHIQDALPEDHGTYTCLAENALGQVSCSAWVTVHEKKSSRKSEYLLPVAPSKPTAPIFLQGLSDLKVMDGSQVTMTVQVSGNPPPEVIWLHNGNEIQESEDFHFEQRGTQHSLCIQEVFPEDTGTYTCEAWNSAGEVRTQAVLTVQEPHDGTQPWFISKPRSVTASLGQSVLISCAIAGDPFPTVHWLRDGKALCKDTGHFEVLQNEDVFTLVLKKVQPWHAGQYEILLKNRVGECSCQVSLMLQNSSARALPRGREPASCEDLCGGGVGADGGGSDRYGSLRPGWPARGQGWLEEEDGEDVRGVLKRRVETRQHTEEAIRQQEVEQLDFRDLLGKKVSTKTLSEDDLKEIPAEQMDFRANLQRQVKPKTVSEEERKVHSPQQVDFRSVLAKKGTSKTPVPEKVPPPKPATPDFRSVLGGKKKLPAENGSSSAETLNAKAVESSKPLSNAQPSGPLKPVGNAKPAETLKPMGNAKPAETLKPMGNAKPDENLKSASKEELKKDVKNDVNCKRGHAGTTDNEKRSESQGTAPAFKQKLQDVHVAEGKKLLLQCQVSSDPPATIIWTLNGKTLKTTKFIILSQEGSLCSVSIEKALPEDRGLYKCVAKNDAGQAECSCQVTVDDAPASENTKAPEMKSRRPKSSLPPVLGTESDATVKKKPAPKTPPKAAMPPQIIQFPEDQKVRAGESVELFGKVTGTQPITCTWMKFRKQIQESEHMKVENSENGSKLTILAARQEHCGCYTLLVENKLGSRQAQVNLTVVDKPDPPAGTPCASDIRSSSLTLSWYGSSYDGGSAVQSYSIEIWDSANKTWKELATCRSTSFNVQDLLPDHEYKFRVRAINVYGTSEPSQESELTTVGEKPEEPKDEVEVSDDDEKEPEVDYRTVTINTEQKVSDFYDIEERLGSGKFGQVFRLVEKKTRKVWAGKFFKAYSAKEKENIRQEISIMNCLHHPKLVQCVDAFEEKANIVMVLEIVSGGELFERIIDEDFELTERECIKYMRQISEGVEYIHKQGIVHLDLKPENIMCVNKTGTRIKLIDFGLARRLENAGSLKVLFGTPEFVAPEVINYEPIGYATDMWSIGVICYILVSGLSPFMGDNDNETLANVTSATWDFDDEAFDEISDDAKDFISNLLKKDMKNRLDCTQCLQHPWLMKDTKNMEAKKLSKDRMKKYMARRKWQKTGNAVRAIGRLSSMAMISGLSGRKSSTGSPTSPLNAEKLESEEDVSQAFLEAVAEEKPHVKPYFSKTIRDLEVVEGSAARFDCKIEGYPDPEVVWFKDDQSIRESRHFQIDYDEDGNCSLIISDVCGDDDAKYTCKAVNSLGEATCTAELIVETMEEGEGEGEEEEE

[10] = target: Serine/threonine-protein kinase MARK2 (Homo sapiens) (UniProt Q7KZI7)
Chain of Serine/threonine-protein kinase MARK2 (Homo sapiens) (Q7KZI7 whole entry): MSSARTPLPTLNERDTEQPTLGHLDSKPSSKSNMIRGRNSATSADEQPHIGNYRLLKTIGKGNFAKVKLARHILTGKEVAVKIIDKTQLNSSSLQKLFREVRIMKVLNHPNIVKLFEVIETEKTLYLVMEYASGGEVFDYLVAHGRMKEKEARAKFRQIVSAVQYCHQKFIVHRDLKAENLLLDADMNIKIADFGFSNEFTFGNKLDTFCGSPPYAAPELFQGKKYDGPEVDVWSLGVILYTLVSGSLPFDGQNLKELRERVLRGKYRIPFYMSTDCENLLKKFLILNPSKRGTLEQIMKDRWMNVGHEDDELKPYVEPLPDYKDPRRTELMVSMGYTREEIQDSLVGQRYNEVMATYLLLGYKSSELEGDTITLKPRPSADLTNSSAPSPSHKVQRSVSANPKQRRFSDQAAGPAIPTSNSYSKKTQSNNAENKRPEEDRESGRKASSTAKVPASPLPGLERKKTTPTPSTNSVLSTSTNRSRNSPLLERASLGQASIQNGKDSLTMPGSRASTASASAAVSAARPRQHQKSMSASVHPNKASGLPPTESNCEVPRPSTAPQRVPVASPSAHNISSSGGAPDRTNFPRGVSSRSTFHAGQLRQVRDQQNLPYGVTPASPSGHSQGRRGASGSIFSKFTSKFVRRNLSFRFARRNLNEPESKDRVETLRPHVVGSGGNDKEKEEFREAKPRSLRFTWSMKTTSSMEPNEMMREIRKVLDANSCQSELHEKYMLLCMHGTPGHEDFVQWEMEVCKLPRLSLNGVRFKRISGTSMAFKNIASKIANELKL

[11] = target: Serine/threonine-protein kinase MRCK beta (Homo sapiens) (UniProt Q9Y5S2)
Chain of Serine/threonine-protein kinase MRCK beta (Homo sapiens) (Q9Y5S2 whole entry): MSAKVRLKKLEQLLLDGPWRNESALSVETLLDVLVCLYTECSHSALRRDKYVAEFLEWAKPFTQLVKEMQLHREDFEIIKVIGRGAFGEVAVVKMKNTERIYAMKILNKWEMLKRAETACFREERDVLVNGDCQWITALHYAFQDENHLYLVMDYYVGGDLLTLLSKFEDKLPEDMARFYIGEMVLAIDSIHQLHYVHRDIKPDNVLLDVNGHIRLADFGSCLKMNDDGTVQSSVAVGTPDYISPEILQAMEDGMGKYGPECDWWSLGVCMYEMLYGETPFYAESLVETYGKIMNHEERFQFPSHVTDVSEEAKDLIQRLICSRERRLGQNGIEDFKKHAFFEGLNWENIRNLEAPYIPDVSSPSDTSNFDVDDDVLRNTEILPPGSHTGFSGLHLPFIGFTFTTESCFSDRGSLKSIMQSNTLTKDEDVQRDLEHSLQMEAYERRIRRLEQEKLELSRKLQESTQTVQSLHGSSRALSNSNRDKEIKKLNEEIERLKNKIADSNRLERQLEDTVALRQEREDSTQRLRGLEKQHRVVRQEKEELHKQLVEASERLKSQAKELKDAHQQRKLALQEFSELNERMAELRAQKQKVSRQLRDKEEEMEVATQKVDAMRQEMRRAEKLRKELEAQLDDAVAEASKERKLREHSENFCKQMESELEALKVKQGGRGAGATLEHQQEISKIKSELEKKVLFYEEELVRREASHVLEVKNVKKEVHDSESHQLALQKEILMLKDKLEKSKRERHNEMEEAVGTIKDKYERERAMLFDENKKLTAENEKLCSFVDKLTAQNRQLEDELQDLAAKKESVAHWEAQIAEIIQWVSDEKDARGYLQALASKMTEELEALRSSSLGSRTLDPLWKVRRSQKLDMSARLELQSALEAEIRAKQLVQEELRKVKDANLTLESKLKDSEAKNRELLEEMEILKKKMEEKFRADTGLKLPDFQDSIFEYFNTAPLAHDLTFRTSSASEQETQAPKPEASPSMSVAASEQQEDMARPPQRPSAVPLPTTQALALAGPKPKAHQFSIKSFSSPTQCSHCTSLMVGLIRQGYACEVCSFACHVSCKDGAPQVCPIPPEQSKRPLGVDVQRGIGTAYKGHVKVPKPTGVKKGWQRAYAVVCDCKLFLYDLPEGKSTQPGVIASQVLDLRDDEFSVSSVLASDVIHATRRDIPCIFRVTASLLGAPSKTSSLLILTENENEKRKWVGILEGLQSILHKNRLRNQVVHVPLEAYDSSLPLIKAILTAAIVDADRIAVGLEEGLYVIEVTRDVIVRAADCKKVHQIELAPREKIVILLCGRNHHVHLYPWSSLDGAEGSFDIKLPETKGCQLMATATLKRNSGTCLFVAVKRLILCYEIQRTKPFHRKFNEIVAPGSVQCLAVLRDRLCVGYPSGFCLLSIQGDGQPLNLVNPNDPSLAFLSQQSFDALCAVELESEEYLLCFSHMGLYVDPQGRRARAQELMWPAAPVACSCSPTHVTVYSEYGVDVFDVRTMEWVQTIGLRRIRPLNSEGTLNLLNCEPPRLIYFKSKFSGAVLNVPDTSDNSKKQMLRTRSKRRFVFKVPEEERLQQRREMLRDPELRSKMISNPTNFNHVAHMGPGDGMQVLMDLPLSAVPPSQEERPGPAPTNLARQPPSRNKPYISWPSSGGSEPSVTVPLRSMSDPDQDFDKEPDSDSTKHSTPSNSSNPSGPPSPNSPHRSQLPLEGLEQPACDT

[12] = tested on: Mast/stem cell growth factor receptor Kit (Homo sapiens), P10721 [L576P]
[13] = target: Protein-tyrosine kinase 2-beta (Homo sapiens) (UniProt Q14289)
[14] = target: Cyclin-dependent kinase-like 5 (Homo sapiens) (UniProt O76039)

Measured: residual activity

Cc1nc(C2CCN(C(=O)c3ccc(OC(F)(F)F)cc3N)CC2)c2ncc(N3CCN(C)CC3)cc2n1 [BAY-693]
inactive: [1] 88% | [2] 79% | [3] 88% | [4] 98% | [5] 100% | [6] 100% | [7] 97% | [8] 100% | [9] 100% | [10] 100% | [11] 100% | [12] 87% | [13] 100% | [14] 89%

CN1CCN(c2cnc3c(C4CCN(C(=O)c5ccc(OC(F)(F)F)cc5N)CC4)ncnc3c2)CC1 [BAY-885]
inactive: [1] 100% | [2] 83% | [3] 95% | [4] 100% | [5] 100% | [6] 100% | [7] 96% | [8] 100% | [9] 88% | [10] 100% | [11] 100% | [12] 95% | [13] 100% | [14] 93%
